Measured values: patent US20050136121A1, “Oral peptide delivery system with improved bioavailability” (SHEAR/KERSHMAN LABORATORIES, INC., priority 2003, published 2005)

Experiment: Study 2: female adult dogs fed formulations or injected with Humulin, serum glucose level
Type: in vivo
Method: Female adult dogs were fed the formulations from Examples 3 to 5. Further dogs were injected with Humulin and given 0.05 mL of 100 U/mL. Before being fed or injected the formulations, the animals fasted overnight. The dogs were fed 4 to 6 hours after dosing.

Humulin: injected insulin comparator, 0.05 mL of 100 U/mL
time after dosing at which glucose level began increasing (injected 0.05 mL of 100 U/mL): about 2 hours | drop in glucose levels (injected 0.05 mL of 100 U/mL, within minutes): 67% | time at which glucose levels returned to normal levels (injected, after eating): about 12 hours | glucose levels at hours 6 to 10 (injected, ate dog food at 4 to 6 hours): above the normal levels
